Read-outs that look alike come from different tables or passages of the source.
How the values were obtained:
[1] = tested on: T. cruzi (Y strain) trypomastigotes; test: Anti-trypomastigote assay (resazurin viability); format: cell-based, Trypanosoma cruzi; conditions: for IC50: read-out: IC50 trypo
Procedure: (§1) The cells and parasites were kept at 37 °C in a humidified atmosphere containing 5% CO2.
Benznidazole was used as the standard drug. The optical density was determined in FilterMax F5 (Molecular Devices) at 570 nm[38].
(§2) IC50 and CC50 values were calculated using a sigmoid dose-response curves in Graph–Pad Prism 5.0 software (GraphPad Software - San Diego, CA, USA). For the mechanism of action studies one-way ANOVA (Turkey’s Multiple Comparison test) was used for significance (p < 0.05). The assays were repeated at least twice and the samples were tested in duplicate.

PAMPA-BBB model = format: in vitro ADME
Procedure: The methodology herein applied was similar to that described in the previous section, however with the purpose of assessing the permeability of the compounds through the blood brain barrier (BBB). Thus, stock solutions (10 mM) of each test compound were prepared in DMSO and diluted with phosphate buffered saline (PBS) at pH 7.4. The final concentration of donor solutions was 300 μM and DMSO of 5%. Artificial membrane lipid solutions were prepared daily by dissolving, in n-dodecane, the porcine brain lipid extracted as described[40] at the final concentration of 2% (m/v). PAMPA procedure was similar to that described in the previous section although, in PAMPA-BBB, the donor and acceptor solutions were prepared using phosphate buffer saline (PBS) at pH 7.4 and the Papp was obtained through the equation previously reported.

[2] = tested on: T. cruzi intracellular amastigotes; test: Anti-amastigote assay in infected peritoneal macrophages (infection index); format: cell-based, Trypanosoma cruzi; conditions: 48 h, read-out: IC50 Ama
Procedure: as §1
The cells were plated on a 16-well chamber slide – NUNC (Thermo Fisher Scientific) at 1 × 10^5 cells/well and incubated for 24 h at 37 °C in a 5% CO2 humidified incubator. […] Tested compounds were subsequently incubated with infected macrophages for 48 h at 37 °C (5% CO2 humidified incubator) in different nontoxic concentrations. Benznidazole was used as standard drug. At the end of the assay, slides were fixed with MeOH and stained with Giemsa, counted under a light microscope (EVOS M5000, Thermo, USA) and IC50 values were determined by the infection index.
as §2

[3] = PAMPA intestinal model (GIT); format: in vitro ADME
Procedure: Intestinal permeability of tested compounds was estimated applying the PAMPA model previously developed and validated. Briefly, stock solutions were prepared in dimethyl sulfoxide (DMSO) at the concentrations of 10 mM and then diluted with Tris buffer to give the final concentration donor solution at 300 µM and 5% DMSO. The assay procedure was initiated by filling each well of the microtiter plate (MultiScreen, catalogue no. MATRNPS50, Millipore Corporation, Bedford, MA, USA) with 300 μL of each donor drug solution. Carefully, and avoiding the pipette tip contact with the filter, the hydrophobic filter (0.45 μm) of each acceptor well of the 96-well microfilter plate (MultiScreen-IP, catalogue no. MAIPNTR10, Millipore Corporation, Bedford, MA, USA) was adsorbed with 6 μL of the artificial lipid solution which was composed of 2% of L-α-phosphatidylcholine from soybean dissolved, by sonication, in n-dodecane. Immediately after this application, 150 μL of Tris buffer containing 5% DMSO was added to the receiving well. The receiving well was mounted on the donor plate, keeping the underside of the membrane in contact with the donor solution. The assembled donor–acceptor plates were incubated under constant stirring (3 g) at 25 °C for approximately 16 h. Subsequently, the quantity of each compound presented at the receptor solution (150 μL) was determined by UV/VIS spectrophotometrically.

[4] = Cytotoxicity against mammalian cells (MTT); format: cell-based, Murine; conditions: mouse, NCTC clone L929 cells
Procedure: Rhesus monkey kidney cells (LLC-MK2-ATCC CCL 7) were used for the maintenance of trypomastigotes of T. cruzi (Y strain) using RPMI-1640 medium supplemented with 2% fetal bovine serum (FBS). The cells and parasites were kept at 37 °C in a humidified atmosphere containing 5% CO2. Peritoneal macrophages, used in the experiments of anti-amastigote assay, were obtained by washing the peritoneal cavity of BALB/c mice, with RPMI-1640 medium supplemented with 10% FBS and kept at 37 °C in a 5% CO2 humidified incubator. Murine conjunctive cells (NCTC clone 929, ATCC) and LLC-MK2 were kept in RPMI-1640 supplemented with 10% FBS at the same conditions described above.
NCTC cells-clone L929 (6 × 10^4 cells/well) were seeded and incubated with tested compounds (200–1.56 µM) for 48 h at 37 °C in a 5% CO2 humidified incubator. Cytotoxic concentration (CC50) was determined by MTT assay. Optical density was determined in FilterMax F5 (Molecular Devices) at 570 nm. Selectivity Index (SI) was determined using the following ratio: CC50 against NCTC cells/IC50 against parasites.
as §2

[5] = Trypanosoma cruzi, T. cruzi trypomastigotes, 24 h incubation, resazurin
[6] = Trypanosoma cruzi, Peritoneal macrophage, in Mus musculus, intracellular amastigotes in BALB/c peritoneal macrophages
[7] = PAMPA-BBB model, 300 µM donor, PBS pH 7.4, read-out: Papp BBB
[8] = PAMPA intestinal model, 300 µM donor, Tris buffer, 25 °C, 16 h, read-out: Papp GIT

Compound	IC50 [1, 5] [µM]	Papp at 16 h, 300 µM (PAMPA-BBB model; PAMPA, pH 7.4) [×10⁻⁶ cm/s]	IC50 [2, 6] [µM]	Papp at 16 h, 300 µM ([3]; PAMPA) [×10⁻⁶ cm/s]	fraction unbound at 16 h, 300 µM [3]	CC50 at 48 h [4] [µM]	Papp at 16 h, 300 µM (PAMPA-BBB model; [7]) [×10⁻⁶ cm/s]	Papp at 16 h, 300 µM [3, 8] [×10⁻⁶ cm/s]	anti-T. cruzi activity (in words) ([1]; Table 1 assays)	IC50 ([1]; Trypanosoma cruzi, 24 h) [µM]	IC50 ([2]; Trypanosoma cruzi, Peritoneal macrophage, in Mus musculus) [µM]	IC50 ([1]; T. cruzi trypomastigotes, 24 h incubation, resazurin) [µM]	IC50 ([2]; intracellular amastigotes in BALB/c peritoneal macrophages) [µM]
C/C=C/c1cc(OC)c2c(c1)[C@H](C)[C@@H](c1ccc(OC)c(OC)c1)O2 [1a, (2S,3 S)-2-(3,4-dimethoxyphenyl)-7-methoxy-3-methyl-5-[(E)-prop-1-enyl]-2,3-dihydrobenzo-furan]	28 ± 10.2	4.26	> 100	0.42		> 200							
C/C=C/c1cc(OC)c2c(c1)[C@H](C)[C@@H](c1ccc(OC(C)=O)c(OC)c1)O2 [1b, [2-methoxy-4-[(2S,3 S)-7-methoxy-3-methyl-5-[(E)-prop-1-enyl]-2,3-dihydrobenzofuran-2-yl]phenyl] acetate]	17.9 ± 2.9	0.34	> 100	1.02		67.2 ± 24.6							
C=CCOc1ccc([C@H]2Oc3c(OC)cc(/C=C/C)cc3[C@@H]2C)cc1OC [1c, (2S,3 S)-2-(4-allyloxy-3-methoxy-phenyl)-7-methoxy-3-methyl-5-[(E)-prop-1-enyl]-2,3-dihydrobenzofuran]	> 100	0.24	> 100	0.43		> 200							
COc1cc(C=O)ccc1OC(C)=O [2b, (4-formyl-2-methoxy-phenyl) acetate]	> 100	4.7	5.6 ± 0.3	17.4	< 0.1	> 200							
C=CCOc1ccc(C=O)cc1OC [2c, 4-allyloxy-3-methoxy-benzaldehyde]	> 100	5.35	> 100	1.6		> 200							
C=CCc1cc(C=O)cc(OC)c1O [2d, 3-allyl-4-hydroxy-5-methoxy-benzaldehyde]	> 100	1.25	> 100	1.57		> 200							
COc1ccc(CO)cc1OC [3a, (3,4-dimethoxyphenyl)methanol]	> 100		> 100			> 200	2.18	2.22					
C=CCOc1ccc(CO)cc1OC [3c, (4-allyloxy-3-methoxy-phenyl)methanol]	> 100	4.74	> 100	1.9		> 200							
C/C=C/c1ccc(OC(C)=O)c(OC)c1 [4b, [2-methoxy-4-[(E)-prop-1-enyl]phenyl] acetate]	54.6 ± 10.2	1.32	> 100	15	< 0.1	> 200							
C=CCc1ccc(OC)c(OC)c1 [5a, 4-allyl-1,2-dimethoxy-benzene]						> 200	1.56	2.35		> 100	> 100		
C/C=C/c1cc(OC)c2c(c1)[C@H](C)[C@@H](c1ccc(O)c(OC)c1)O2 [compound 1, Licarin A]	54.3 ± 8.9	2.37	> 100	0.85		> 200							
COc1cc(C=O)ccc1O [compound 2, vanillin]	> 100		5.5 ± 0.6			> 200	6.15	1.41					
isoeugenol [compound 4]												50.7 ± 17.4	> 100

Further lines, with some results ahead:

IC50 [1, 5] [µM]	Papp at 16 h, 300 µM (PAMPA-BBB model; PAMPA, pH 7.4) [×10⁻⁶ cm/s]	IC50 [2, 6] [µM]	Papp at 16 h, 300 µM ([3]; PAMPA) [×10⁻⁶ cm/s]	fraction unbound at 16 h, 300 µM [3]	Compound	CC50 at 48 h [4] [µM]	Papp at 16 h, 300 µM (PAMPA-BBB model; [7]) [×10⁻⁶ cm/s]	Papp at 16 h, 300 µM [3, 8] [×10⁻⁶ cm/s]	anti-T. cruzi activity (in words) ([1]; Table 1 assays)	IC50 ([1]; Trypanosoma cruzi, 24 h) [µM]	IC50 ([2]; Trypanosoma cruzi, Peritoneal macrophage, in Mus musculus) [µM]	IC50 ([1]; T. cruzi trypomastigotes, 24 h incubation, resazurin) [µM]	IC50 ([2]; intracellular amastigotes in BALB/c peritoneal macrophages) [µM]
> 100	0.2	> 100	0.13		C=CCOc1ccc(/C=C/C)cc1OC [4c, 1-allyloxy-2-methoxy-4-[(E)-prop-1-enyl]benzene]	> 200			did not display activity				
21.2 ± 3.7	0.74	10.4 ± 0.9	1.2		C=CCc1cc(/C=C/C)cc(OC)c1O [4d, 2-allyl-6-methoxy-4-[(E)-prop-1-enyl]phenol]	> 200							
> 100	2.28	> 100	2.81		C=CCc1ccc(OC(C)=O)c(OC)c1 [5b, (4-allyl-2-methoxy-phenyl) acetate]	> 200							
> 100	0.32	> 100	1.21		C=CCOc1ccc(CC=C)cc1OC [5c, 4-allyl-1-allyloxy-2-methoxy-benzene]	> 200							
> 100	0.32	> 100	0.65		C=CCc1cc(CC=C)c(O)c(OC)c1 [5d, 2,4-diallyl-6-methoxy-phenol]	> 200							
5.5 ± 0.9		18.7 ± 2.6			O=C(Cn1ccnc1[N+](=O)[O-])NCc1ccccc1 [Bnz, benznidazole, reference compound]	> 200							
> 100	0.64	> 100	0.18		COc1cc(CO)ccc1O [compound 3, vanillyl alcohol]	> 200							

Source: article PMC7096397, “Improving the drug-likeness of inspiring natural products - evaluation of the antiparasitic activity against Trypanosoma cruzi through semi-synthetic and simplified analogues of licarin A” (Scientific Reports, 2020)
